Values of other authors, collected in patent publication US20130316000A1, “COMPOSITIONS AND METHODS FOR TREATMENT OF IRRITABLE BOWEL SYNDROME WITH 5-AMINOSALICYLATE” (priority 2012, published 2013).

Nc1ccc(O)c(C(=O)O)c1 [mesalamine, 5-aminosalicylic acid]
concentration detected in human breast milk: low concentrations
